Experimental data from PMC7560456, “Synthesis, Selected Transformations, and Biological Activity of Alkoxy Analogues of Lepidilines A and C” (Materials, 2020).
“Also recorded” adds a separate entry of the source. Counter-ions that a name gives are not always drawn.

How the values were obtained:
MCF-7 cells = assay: MTT in vitro cytotoxicity assay, MCF-7; type: cell-based; details: concentration required to inhibit metabolic activity by 50%, mean ± SEM
Method: (§1) The promyelocytic leukemia HL-60 and breast cancer adenocarcinoma MCF-7 cell lines were purchased from the European Collection of Cell Cultures (ECACC). […] MCF-7 cells were maintained in Minimum Essential Medium Eagle (Sigma Aldrich, St. Louis, MO, USA) supplemented with 2 mM glutamine and MEM nonessential amino-acid solution (Sigma Aldrich, St. Louis, MO, USA). Both media were supplemented with 10% heat-inactivated fetal bovine serum (Biological Industries, Beit-Haemek, Israel) and antibiotics (100 U/mL penicillin and 100 μg/mL streptomycin) (Sigma-Aldrich, St. Louis, MO, USA). Human umbilical vein endothelial cells (HUVECs) and human mammary gland/breast cell line MCF-10A were purchased from the American Type Culture Collection (ATCC). HUVECs were cultured using the EGM-2 Endothelial Medium BulletKit, whereas MCF-10A was cultured using the MEGM Mammary Epithelial BulletKit, both purchased from Lonza (Lonza, Walkersville, MD, USA).
(§2) The MTT (3-(4, 5-dimethylthiazol-2-yl)-2, 5-diphenyltetrazolium bromide) assay was performed according to the known procedure. Cells were seeded into 24-well plates at a density of 8 × 10^4/mL and left to grow for 24 h. After being cultured for 48 h with various concentrations of the tested compounds, cells were incubated with MTT solution (5 mg/mL in phosphate-buffered saline) for 2 h. Then, the plates were centrifuged and the supernatant was discarded. Dimethyl sulfoxide (DMSO; 1 mL) was added to each well to dissolve the blue formazan product, whose absorbance was measured at 560 nm using a FlexStation 3 Multi-Mode Microplate Reader (Molecular Devices, LLC, CA, USA). The untreated cells were used as control. The data were expressed as mean ± SEM of three independent experiments.

HUVECs = assay: MTT in vitro cytotoxicity assay, HUVEC (normal cells); type: cell-based, human; details: 48 h, mean ± SEM
Method: as §1, §2

HL-60 cells = assay: MTT in vitro cytotoxicity assay, HL-60; type: cell-based; details: concentration required to inhibit metabolic activity by 50%, mean ± SEM
Method: as §1, §2

MCF-10A cells = assay: MTT in vitro cytotoxicity assay, MCF-10A (normal cells); type: cell-based, human; details: 48 h, mean ± SEM
Method: as §1, §2

FDIGROV cell line = test system: FDIGROV cell line; parameters: method as in PMID 12932133; details: ovarian carcinoma; cited from earlier work
MDA231 cell line = test system: MDA231 cell line; parameters: method as in PMID 12932133; details: breast carcinoma; cited from earlier work
PACA2 cell line = test system: PACA2 cell line; parameters: method as in PMID 12932133; details: pancreatic adenocarcinoma; cited from earlier work
UMUC3 cell line = test system: UMUC3 cell line; parameters: method as in PMID 12932133; details: bladder carcinoma; cited from earlier work

Work on “1-Adamantyloxy-3-(2-methylbenzyloxy)-4,5-dimethylimidazolium bromide [5i]” yielded an IC50 (MCF-7 cells; 48 h) of 5.95 ± 0.35 µM, an IC50 (HUVECs) of 3960 ± 80 nM and an IC50 (HL-60 cells; 48 h) of 670 ± 10 nM.

Work on “1-Adamantyloxy-3-(3,5-dimethylbenzyloxy)-4,5-dimethylimidazolium bromide [5k]” yielded an IC50 (MCF-7 cells; 48 h) of 2.4 ± 0.06 µM, an IC50 (HUVECs) of 1820 ± 80 nM and an IC50 (MCF-10A cells) of 1360 ± 10 nM. It also gave an IC50 (HL-60 cells; 48 h) of 360 ± 10 nM.

For “1-Adamantyloxy-3-(4-methylbenzyloxy)-4,5-dimethylimidazolium bromide [5j]”, the IC50 (MCF-7 cells; 48 h) was 2.63 ± 0.03 µM, the IC50 (HUVECs) was 1940 ± 10 nM and the IC50 (MCF-10A cells) was 1690 ± 40 nM. It also gave an IC50 (HL-60 cells; 48 h) of 390 ± 10 nM.

“1-Adamantyloxy-3-benzyloxy-4,5-dimethylimidazolium bromide [5h]” showed an IC50 (MCF-7 cells; 48 h) of 6.76 ± 0.08 µM, an IC50 (HUVECs) of 3700 ± 230 nM and an IC50 (MCF-10A cells) of 6400 ± 30 nM. The IC50 (HL-60 cells; 48 h) was 880 ± 80 nM.

Compound `Cc1cc(C)cc(CO[n+]2cn(OC34CC5CC(CC(C5)C3)C4)c(C)c2C)c1` (as salt: phosphate) (hydrate or solvate) [6b, 1-Adamantyloxy-3-(3,5-dimethylbenzyloxy)-4,5-dimethylimidazolium hexafluorophosphate] has a melting point of 150 to 152 °C.

With `c1ccc(CO[n+]2cn(Cc3ccccc3)c(-c3ccccc3)c2-c2ccccc2)cc1` (as salt: phosphate) [6a, 1-Benzyl-3-benzyloxy-4,5-diphenylimidazolium hexafluorophosphate] the melting point was 163 to 166 °C.

Work on `Cc1c(C)[n+]([O-])cn1OCc1ccccc1` [3c, 1-Benzyloxy-4,5-dimethyl-1H-imidazole 3-oxide] yielded a melting point of 103 to 105 °C.

In the case of `Cc1ccccc1COn1c[n+]([O-])c(C)c1C` [3d, 1-(2-Methylbenzyloxy)-4,5-dimethyl-1H-imidazole 3-oxide], the melting point is reported as 89 to 91 °C.

Work on `Cc1ccc(COn2c[n+]([O-])c(C)c2C)cc1` [3e, 1-(4-Methylbenzyloxy)-4,5-dimethyl-1H-imidazole 3-oxide] yielded a melting point of 101 to 102 °C.

In the case of `Cc1cc(C)cc(COn2c[n+]([O-])c(C)c2C)c1` [3f, 1-(3,5-Dimethylbenzyloxy)-4,5-dimethyl-1H-imidazole 3-oxide], the melting point is reported as 96 to 98 °C.

For `Cc1c(C)[n+](OCc2ccccc2)cn1Cc1ccccc1.[Br-]` [4a, 1-Benzyl-3-benzyloxy-4,5-dimethylimidazolium bromide], the melting point was 148 to 150 °C.

With `[Br-].c1ccc(CO[n+]2cn(Cc3ccccc3)c(-c3ccccc3)c2-c2ccccc2)cc1` [4b, 1-Benzyl-3-benzyloxy-4,5-diphenylimidazolium bromide] the IC50 (MCF-7 cells; 48 h) was 1.53 ± 0.09 µM, the IC50 (HUVECs; Homo sapiens, HUVEC) was 970 ± 30 nM and the IC50 (MCF-10A cells; Homo sapiens, MCF-10A) was 570 ± 10 nM. It also gave an IC50 (HL-60 cells; 48 h) of 700 ± 30 nM and a melting point of 167 to 169 °C.

For `Cc1[nH]c(C23CC4CC(CC(C4)C2)C3)[n+](OCc2ccccc2)c1C.[Br-]` [4c, 1-Adamantyl-3-benzyloxy-4,5-dimethylimidazolium bromide], the melting point was 196 to 197 °C.

`[Br-].c1ccc(CO[n+]2c(C34CC5CC(CC(C5)C3)C4)[nH]c(-c3ccccc3)c2-c2ccccc2)cc1` [4d, 1-Adamantyl-3-benzyloxy-4,5-diphenylimidazolium bromide] showed a melting point of 180 to 182 °C.

Compound `Cc1c(C)[n+](OCc2ccccc2)cn1OCc1ccccc1.[Br-]` [5a, 1,3-Dibenzyloxy-4,5-dimethylimidazolium bromide] has a melting point of 110 to 111 °C.

In the case of `Cc1ccccc1COn1c[n+](OCc2ccccc2C)c(C)c1C.[Br-]` [5b, 1,3-Di-(2-methylbenzyloxy)-4,5-dimethylimidazolium bromide], the IC50 (MCF-7 cells; Homo sapiens, MCF7, 48 h) is reported as 8.3 ± 0.01 µM, the IC50 (HL-60 cells; Homo sapiens, HL-60, 48 h) is reported as 1540 ± 10 nM and the melting point is reported as 132 to 133 °C.

In the case of `Cc1ccc(COn2c[n+](OCc3ccc(C)cc3)c(C)c2C)cc1.[Br-]` [5c, 1,3-Di-(4-methylbenzyloxy)-4,5-dimethylimidazolium bromide], the IC50 (MCF-7 cells; Homo sapiens, MCF7, 48 h) is reported as 24.2 ± 0.46 µM, the IC50 (HL-60 cells; Homo sapiens, HL-60, 48 h) is reported as 4880 ± 180 nM and the melting point is reported as 111 to 113 °C.

`Cc1cc(C)cc(COn2c[n+](OCc3cc(C)cc(C)c3)c(C)c2C)c1.[Br-]` [5d, 1,3-Di-(3,5-dimethylbenzyloxy)-4,5-dimethylimidazolium bromide] showed an IC50 (MCF-7 cells; Homo sapiens, MCF7, 48 h) of 8.57 ± 0.37 µM, an IC50 (HL-60 cells; Homo sapiens, HL-60, 48 h) of 1460 ± 20 nM and a melting point of 141 to 143 °C.

In the case of `Cc1ccccc1CO[n+]1cn(OCc2ccccc2)c(C)c1C` [5e, 1-Benzyloxy-3-(2-methylbenzyloxy)-4,5-dimethylimidazolium bromide], the IC50 (MCF-7 cells; Homo sapiens, MCF7, 48 h) is reported as 11.6 ± 0.25 µM and the IC50 (HL-60 cells; Homo sapiens, HL-60, 48 h) is reported as 3160 ± 180 nM.

Compound `Cc1ccc(CO[n+]2cn(OCc3ccccc3)c(C)c2C)cc1.[Br-]` [5f, 1-Benzyloxy-3-(4-methylbenzyloxy)-4,5-dimethylimidazolium bromide] has an IC50 (MCF-7 cells; Homo sapiens, MCF7, 48 h) of 16.6 ± 1.06 µM, an IC50 (HL-60 cells; Homo sapiens, HL-60, 48 h) of 2910 ± 80 nM and a melting point of 124 to 126 °C.

Work on `c1ccc(CO[n+]2cn(Cc3ccccc3)c(-c3ccccc3)c2-c2ccccc2)cc1` [6a, 1-Benzyl-3-benzyloxy-4,5-diphenylimidazolium hexafluorophosphate] yielded an IC50 (MCF-7 cells; Homo sapiens, MCF7, 48 h) of 1.29 ± 0.01 µM and an IC50 (HL-60 cells; Homo sapiens, HL-60, 48 h) of 640 ± 20 nM.

`Cc1cc(C)cc(CO[n+]2cn(OC34CC5CC(CC(C5)C3)C4)c(C)c2C)c1` [6b, 1-Adamantyloxy-3-(3,5-dimethylbenzyloxy)-4,5-dimethylimidazolium hexafluorophosphate] gave an IC50 (MCF-7 cells; Homo sapiens, MCF7, 48 h) of 2.52 ± 0.03 µM and an IC50 (HL-60 cells; Homo sapiens, HL-60, 48 h) of 370 ± 10 nM.

`Cc1c(C)n(OCc2ccccc2)c(=S)n1Cc1ccccc1` [7a, 1-Benzyl-3-benzyloxy-4,5-dimethylimidazole-2-thione] gave a melting point of 116 to 117 °C.

For `Cc1c(C)n(OCc2ccccc2)c(=S)n1OCc1ccccc1` [7c, 1,3-Dibenzyloxy-4,5-dimethylimidazole-2-thione], the melting point was 87 to 88 °C.

For `Cc1c(C)[n+](Cc2ccccc2)cn1Cc1ccccc1` [lepidiline A], the “activity against FDIGROV cell line” value (FDIGROV cell line) is listed as “some activity”.

For `Cc1c(C)[n+](Cc2ccccc2)c(C)n1Cc1ccccc1` [lepidiline B], the “activity against MDA231 cell line” value (MDA231 cell line) is listed as “promising activity; also recorded: highly cytotoxic”, the “activity against FDIGROV cell line” value (FDIGROV cell line) is listed as “some activity; also recorded: highly cytotoxic” and the “activity against PACA2 cell line” value (PACA2 cell line) is listed as “promising activity; also recorded: highly cytotoxic”. The “activity against UMUC3 cell line” value (UMUC3 cell line) was “promising activity; also recorded: highly cytotoxic”.
